Entries after “also recorded” stand apart in the source; their conditions may differ.

For one test, the system named is α-tubulin deacetylation. The test is described as follows: acetylated α-tubulin in cells (AcTubulin cytoblot, immunofluorescence, Western blot). It counts as cell-based, human. The following applies: A549 (also BS-C-1) cells, tubacin/JCWII114, niltubacin/JCWII153 2 μM, TSA 100 nM-4 μM, library ~2-5 μM, 18 h. As to the method:
(§1) A549 cells were seeded at a density of 4,000 cells/50 μl in DMEM+ in white tissue culture-treated 384-well plates (Nalge Nunc) using a Multidrop 384 liquid dispenser (Labsystems). Library small molecules were pinned twice (100-150 nl/pin) from ˜1 mM stock solutions (DMSO) and incubated for 18 hours. For the ITSA1+AcTubulin assay, ITSA1 (50 μM) was added four hours after pin-transfer of library molecules. Media was aspirated with a 16-channel wand. For the acetylated α-tubulin cytoblot (AcTubulin), 40 μl/well of fixation solution (3.7% formaldehyde (1:10 from 37% stock) in Tris-buffered saline (TBS, 0.15 M NaCl, 0.02 M Tris-Cl, pH 7.4) was added and plates incubated for twenty minutes at room temperature. After aspiration, 30 μl 100% methanol (−20° C.) was added and incubated for five minutes at room temperature. After aspirating and washing three times with 90 μl of antibody dilution buffer (ADB, TBS/2% bovine serum albumin, 0.1% TritonX-100) the wells were blocked for twenty minutes in ADB. After aspirating, 20 μl/well of ADB containing anti-acetylated α-tubulin antibody (mouse; 1:1000) and anti-mouse IgG horseradish peroxidase (HRP)-conjugated antibody (1:750) was added and incubated overnight (4° C.). For the anti-acetyl lysine cytoblot (AcLysine), 40 μl/well of fixation solution (95% ethanol/5% acetic acid, −20° C.) was added and plates incubated for five minutes at room temperature. Wells were aspirated, washed, and blocked in ADB as for the AcTubulin protocol. After aspirating, 20 μl/well of ADB containing anti-acetylated lysine (rabbit; 1:375) and anti-rabbit IgG-HRP conjugated antibody (1:750) was added and incubated overnight (4° C.). For the anti-acetylated histone H3 (AcHistH3) and anti-acetylated histone H4 (AcHistH4) cytoblots, cells were fixed, washed, and blocked in ADB as for the AcLysine cytoblot. After aspirating, 20 μl/well of ADB containing anti-acetylated histone H3 antibody (rabbit, 1:500) or anti-acetylated histone H4 antibody (rabbit, 1:500) was added and incubated for two hours at room temperature. Wells were aspirated and washed twice with 80 μl of ADB. After aspirating, 20 μl/well of ADB containing anti-rabbit IgG-HRP conjugated antibody (1:1000) was added and incubated for two hours (room temperature). For the AcTubulin and AcLysine assays, plates were washed three times with TBS before adding 20 μl/well of enhanced chemiluminescent (ECL) mixture. For the AcHistH3 and AcHistH4 assays, plates were washed three times with 80 μl TBS with 1% Triton X-100 and once with 80 μl TBS before adding 20 μl/well of ECL mixture. Plates were read on an Analyst plate reader (LJL Biosystems) with an integration time of 0.1 seconds.
(§2) 1,3-dioxanes from single polystyrene macrobeads were prepared as 1-2 mM stock solutions in DMSO as described [Hubbert, C., Guardiola, A., Shao, R., Kawaguchi, Y., Ito, A., Nixon, A., Yoshida, M., Wang, X. F., and Yao, T. P. (2002). HDAC6 is a microtubule-associated deacetylase. Nature 417, 455-458]. Bead decoding and structure determination were as described [See for example, Hubbert, C., Guardiola, A., Shao, R., Kawaguchi, Y., Ito, A., Nixon, A., Yoshida, M., Wang, X. F., and Yao, T. P. (2002). HDAC6 is a microtubule-associated deacetylase. Nature 417, 455-458; and Piperno, G., LeDizet, M., and Chang, X. J. (1987). Microtubules containing acetylated alpha-tubulin in mammalian cells in culture. J. Cell Biol. 104, 289-302]. Small molecules (˜2-5 μM) of interest were retested using a sample from the plate of stock solutions by fluorescence microscopy and comparison to the effects of trichostatin (300 nM to 1 μM).
(§3) A549 cells were seeded at a density of 50,000/200 μl in DMEM+ on the surface of glass coverslips on top of Parafilm in a 10 cm dish and allowed to attach overnight. For detection of acetylated α-tubulin, cells were permeabilized and fixed with 100 mM K-PIPES, pH 6.8, 10 mM EGTA, 1 mM MgCl2, 0.2% triton X-100, 0.2% glutaraldehyde for fifteen minutes. […]

The test system of another test is histone deacetylation. The test is described as follows: acetylated lysine / acetylated histone in cells (AcLysine cytoblot, immunofluorescence, Western blot). The test is classed as cell-based, human. The following applies: A549 (also BS-C-1) cells, tubacin, niltubacin 2 μM, histacin 20 μM, library ~2-5 μM, 18 h. As to the method: as §1, §2, §3
(In general: A western blot detects proteins with antibodies after separation by electrophoresis.)

The subject of test [1] is α-tubulin acetylation in the presence of ITSA1. As to the kind of experiment: ITSA1+AcTubulin assay: suppression of induced acetylation by ITSA1. It counts as cell-based, human. The following applies: ITSA1 50 μM, A549 cells. As to the method: A549 cells were seeded at a density of 4,000 cells/50 μl in DMEM+ in white tissue culture-treated 384-well plates (Nalge Nunc) using a Multidrop 384 liquid dispenser (Labsystems). Library small molecules were pinned twice (100-150 nl/pin) from ˜1 mM stock solutions (DMSO) and incubated for 18 hours. For the ITSA1+AcTubulin assay, ITSA1 (50 μM) was added four hours after pin-transfer of library molecules. Media was aspirated with a 16-channel wand. […] Plates were read on an Analyst plate reader (LJL Biosystems) with an integration time of 0.1 seconds.
Bromodeoxyuridine labeling and fluorescence-activated cell sorting (FACS) were performed as described (K. M. Koeller et al., Chemistry & Biology, 10 (5) (2003) pp. 397-410). […]

Test [2] relates to microtubules in A549 cells. As to the kind of experiment: microtubule stability to nocodazole, cold or calcium depolymerization and repolymerization. The following applies: tubacin 2 μM, ITSA1 50 μM. It counts as cell-based, human. As to the method: Detection of acetylated α-tubulin and acetylated histones by immunofluorescence was performed as described in Example 6 above. For determining microtubule stability, A549 cells were treated as indicated, fixed in glutaraldehyde, and stained for acetylated α-tubulin and total α-tubulin in antibody dilution buffer (ADB, Tris-buffered saline (TBS), 0.15 M NaCl, 0.02 M Tris-Cl, pH 7.4, with 2% bovine serum albumin and 0.1% Triton-X 100). For cold-depolymerization, cells were incubated at 4° C. or 37° C. for an additional 90 minutes before fixation. For calcium depolymerization, cells were incubated at 37° C. for 10 minutes in a microtubule-stabilizing buffer (0.2% NP-40, 5 mM MgCl2, 2 mM EGTA, 2 M glycerol, 100 mM PIPES, pH 6.8) with and without the addition of CaCl2 (2 mM) before glutaraldehyde fixation. For co-localization experiments, biotubacin (50 μM) treated A549 cells were fixed in 3.7% formaldehyde in TBS and processed as for detecting acetylated α-tubulin (See Example 6 above) with biotubacin detected using streptavidin-TR (1:500). HDAC6 was detected using a rabbit polyclonal antibody (1:250-1:750; C.M.G., unpublished data) under the conditions used to detect acetylated α-tubulin (See Example 6 above). Filamentous actin in HT-1080 cells was detected using TR-conjugated phalloidin (1 μg/mL), and depolymerized actin using FITC-conjugated deoxyribonuclease (10 μg/mL), following fixation in 3.7% formaldehyde in TBS. p58 (1:100) in NIH-3T3 cells was detected after fixation in 3.7% formaldehyde in TBS. Images for these experiments were collected on a Zeiss LSM510 confocal scanning laser microscope at the appropriate wavelengths using the accompanying software and processed with Adobe Photoshop. Deconvoluted serial images of TSA and DMSO treated A549 cells were obtained by taking sections (8μ) on a Zeiss Axioskop 2 microscope using an AxioCam camera and the accompanying software. Rat hippocampal neuronal cultures were fixed at room temperature for 15 min in phosphate-buffered saline (PBS) containing 4% paraformaldehyde. […]

In test [3] the test system is α-tubulin acetylation in the presence of ITSA1. As to conditions: cited from earlier work.
The subject of test [4] is zebrafish (Danio rerio) embryos. As to the kind of experiment: phenotypic assay with 16-cell zebrafish embryos. The test is classed as in vivo. As to conditions: 60 μM, 18 h (24 h in FIG. 22B) post-fertilization. Here is the method:
To determine the effect of these compounds on whole organism development, a phenotypic assay was performed using 16-cell zebrafish (Danio rerio) embryos (Stockwell et al. Chem. Biol. 1999, 6, 71-83) with 1300 compounds from the 1,3-dioxane library. […] The folded notochord phenotype has also been observed through genetic mutant screens^32 for the gul^m208 and lev^m531 mutations. The 1,3-diol (13) may target these gene products or other proteins involved in the same biological pathway. Dissection of the pathways involved in notochord development may be complemented by small molecule ligands for proteins in those pathways.

Consider `Nc1ccccc1NC(=O)CCCCCC(=O)Nc1cccc([C@@H]2O[C@H](CN3CCN(Cc4ccccc4)CC3)C[C@H](c3ccc(CO)cc3)O2)c1` [histacin], for which the “effect on tubulin deacetylation / α-tubulin acetylation in cells” value with α-tubulin deacetylation is given as “without affecting α-tubulin acetylation levels”; in the test on α-tubulin deacetylation (listed as 410 F1), “no effect on α-tubulin acetylation”. The entries for the “effect on histone deacetylation / lysine or histone acetylation in cells” value with histone deacetylation and in the test with histone deacetylation (listed as 410 F1) were “increased acetylated histone levels” and “strongly increased lysine acetylation”, respectively. Moreover, in test [1], the “suppression of the induced acetylation by ITSA1” value is listed as “cannot be suppressed by ITSA1”.

Turning to `O=C(c1ccc(Cl)cc1Cl)n1nnc2ccccc21` [ITSA1, reference compound], the “polymerization of microtubules after removal of nocodazole” value in test [2] was “neither tubacin nor ITSA1 (50 μM; 30 minutes) prevents the repolymerization of microtubules; also recorded: neither tubacin nor ITSA1 prevented the polymerization of microtubules”. Besides, in test [3], the “suppression by ITSA1, stated as known” value was “suppresses (reduces) the ability of TSA to increase acetylation levels of both α-tubulin and histones”.

For the compound `[O-][n+]1ccccc1SC[C@@H](O)[C@@H](c1ccccc1)[C@@H](O)c1ccc(CO)cc1` (racemic) [compound 13, (±)-(1R,2S,3S)-1-[4-(hydroxymethyl)phenyl]-4-[(1-oxido-2-pyridinyl)thio]-2-phenyl-1,3-butanediol], the “developmental phenotype of zebrafish embryos” value in test [4] was “causes a wavy notochord phenotype; also recorded: developed folds in the anterior trunk region of the notochord”.

(Values after patent US8178579B2, “Dioxanes and uses thereof” (President and Fellows of Harvard College, priority 2001, dated 2012).)
